By IC50 is commonly meant the concentration needed to halve the response being measured. Read a high IC50 as a need for much substance. By Kd is commonly meant the free concentration of one partner at which half of the binding sites on the other are occupied at equilibrium, for simple one-to-one binding.

This note sets out measurements from ChEMBL document CHEMBL3120058, “Integrated strategies for identifying leads that target the NS3 helicase of the hepatitis C virus” (J Med Chem, 2014).

A short description of experiment [1]: Inhibition of HCV H genotype 1a N-terminal hexa-histidine-tagged NS3 helicase expressed in Escherichia coli BL21(DE3) using DNA oligonucleotide duplex as substrate after 1 hr by unwinding assay. Also noted: species or system Hepatitis C virus (isolate H).
The nature of experiment [2]: Binding affinity to HCV H genotype 1a N-terminal hexa-histidine-tagged NS3 helicase expressed in Escherichia coli BL21(DE3) assessed as resonance peak1 by STD NMR spectroscopic analysis. Details: species or system Hepatitis C virus (isolate H).
Experiment [3] in a line: Binding affinity to HCV H genotype 1a N-terminal hexa-histidine-tagged NS3 helicase expressed in Escherichia coli BL21(DE3) by isothermal titration calorimetry. Also noted: species or system Hepatitis C virus (isolate H). A general note: Isothermal titration calorimetry measures the heat released or taken up as one component is titrated into another.
A short description of experiment [4]: Binding affinity to HCV H genotype 1a N-terminal hexa-histidine-tagged NS3 helicase expressed in Escherichia coli BL21(DE3) at pH 6.5 by circular dichroism assay. Details: species or system Hepatitis C virus (isolate H). On the technique in general: Circular dichroism is widely used to follow secondary structure.
The nature of experiment [5]: Binding affinity to HCV H genotype 1a N-terminal hexa-histidine-tagged NS3 helicase expressed in Escherichia coli BL21(DE3) assessed as resonance peak2 by STD NMR spectroscopic analysis. Details: species or system Hepatitis C virus (isolate H).
Experiment [6] is described as follows: Selectivity ratio for HCV H genotype 1a N-terminal hexa-histidine-tagged NS3 helicase over human RNA helicase A.
Experiment [7] can be described thus: Binding affinity to HCV H genotype 1a N-terminal hexa-histidine-tagged NS3 helicase expressed in Escherichia coli BL21(DE3) in ITC/NMR buffer at pH 7.5 by circular dichroism assay. Details: species or system Hepatitis C virus (isolate H).

`C#Cc1cccc(Cn2cc(CC(=O)O)c3ccccc32)c1` came in with an IC50 in experiment [1] of 31 µM.
The same measure, in the same setting: in the case of `O=C(O)Cc1cn(Cc2cccc(I)c2)c2ccccc12` it was 52 µM; in that of `O=C(O)Cc1cn(Cc2cccc([N+](=O)[O-])c2)c2ccccc12`, 46 µM.
As for `Nc1cccc(Cn2cc(CC(=O)O)c3ccccc32)c1`, in experiment [1], the 50% inhibitory concentration (IC50) is over 500 µM.
Still for that read-out and setting: next, `Nc1cc(N)cc(-c2ccc3c(CC(=O)O)cn(Cc4cccc(Cl)c4)c3c2)c1`: 35 µM; `COc1ccc([N+](=O)[O-])cc1Cn1cc(CC(=O)O)c2ccccc21`: 14 µM.
In experiment [1], `O=C(O)Cc1cn(Cc2cccc(Cl)c2)c2cc(-c3ccccc3)ccc12` gave an IC50 of 140 µM.
As to `COc1ccc([N+](=O)[O-])cc1Cn1cc(CC(=O)O)c2ccc(-c3cc(N)cc(N)c3)cc21`, the Kd in experiment [2] was determined as 32 µM; in experiment [3], 33 µM; in experiment [4] it was 3.5 µM; in experiment [5] it was 28 µM; in experiment [7] it was 41 µM. In addition, the half-maximal inhibitory concentration (IC50) in experiment [1] worked out at 3 µM. For the same compound, the Selectivity ratio in experiment [6] was 36.
`O=C(O)Cc1cn(Cc2cccc(Cl)c2)c2ccccc12` gave a half-maximal inhibitory concentration (IC50) in experiment [1] of 71 µM.
The compound `O=C(O)Cc1cn(-c2ccc([N+](=O)[O-])cc2C(F)(F)F)c2ccc(Br)cc12` gave an IC50 in experiment [1] of 140 µM.
In turn, `O=C(O)Cc1cn(Cc2cccc(Cl)c2)c2cc(Br)ccc12` returned an IC50 in experiment [1] of 94 µM.
On to `O=C(O)Cc1c[nH]c2ccccc12` [INDOLE-3-ACETIC ACID], for which the half-inhibitory concentration (IC50) in experiment [1] came out at 500 µM.
Same read-out and setting: next, `O=C(O)Cc1cn(Cc2cccc(Cl)c2)c2cc(Cl)ccc12`: 94 µM; `O=C(O)Cc1cn(Cc2cccc(O)c2)c2ccccc12`: 150 µM; `Cc1cccc(Cn2cc(CC(=O)O)c3ccccc32)c1`: 85 µM.
Consider `O=C(O)Cc1cn(Cc2ccccc2)c2ccccc12`, for which the IC50 in experiment [1] was found to be 240 µM.
In experiment [1], `Nc1cc(-c2ccc3c(CC(=O)O)cn(Cc4cccc(Cl)c4)c3c2)cc([N+](=O)[O-])c1` displayed a concentration for half-maximal inhibition (IC50) of 140 µM.
